Data reported in the NIST ThermoML archive (doi:10.1021/je201299u).
Numbers after ± are expanded uncertainties.

Details: Liquid, Ebulliometric method (Recirculating still)

Row | vapor or sublimation pressure (110.01 K) [kPa] | vapor or sublimation pressure (112.98 K) [kPa] | vapor or sublimation pressure (114.99 K) [kPa] | vapor or sublimation pressure (117 K) [kPa] | vapor or sublimation pressure (118.99 K) [kPa] | vapor or sublimation pressure (120.96 K) [kPa] | vapor or sublimation pressure (123.01 K) [kPa] | vapor or sublimation pressure (115.07 K) [kPa] | vapor or sublimation pressure (120.11 K) [kPa] | vapor or sublimation pressure (130.15 K) [kPa] | vapor or sublimation pressure (135.09 K) [kPa] | Compound
1 | 1466.7 ± 6 | 1735.2 ± 7 | 1936 ± 7.8 | 2153.3 ± 8.7 | 2385.7 ± 9.6 | 2633.9 ± 11 | 2913 ± 12 |  |  |  |  | N#N [nitrogen]
2 | 88.2 ± 1.4 | 112.74 ± 1.4 | 132.11 ± 1.4 | 153.92 ± 1.4 | 178.11 ± 1.5 | 204.78 ± 1.5 | 235.61 ± 1.6 | 134.08 ± 1.3 | 194.65 ± 1.3 | 374.77 ± 1.4 | 496.11 ± 1.4 | C [methane]
